Measurements from patent US20230151434A1, “REAWAKENING OF DORMANT TUMOR CELLS BY MODIFIED LIPIDS DERIVED FROM STRESS ACTIVATED NEUTROPHILS” (The Wistar Institute of Anatomy and Biology, priority 2020, published 2023).
Like-named read-outs stand apart in the source and are kept apart here.

Legend:
PMN [1] = assay: PMN viability (proportion of live PMN); type: cell-based, mouse
Protocol: FIG. 2A-FIG. 2K show neutrophil-mediated reactivation of dormant cells is regulated by stress-induced S100A8/A9. (FIG. 2A) Fold increase in the number of KPr^p53A cells cultured in the presence of PMN and S100A8/A9 or indicated cytokines relative to KPr^p53A cells cultured with PMN. Three independent experiments with 16 replicates were performed. Mean±SEM of one experiment is shown. (FIG. 2B) Fold increase in the number of KPr^p53A cells cultured in the presence of PMN and LPS relative to KPr^p53A cells cultured with PMN or alone. Means±SEM of three independent experiments with 16 replicates each are shown. (FIG. 2C) Fold increase in the number of KPr^p53A cells cultured in the presence of S100A8/A9 alone, PMN and S100A8/A9, or PMN-MDSC relative to KPr^p53A cultured alone. Means±SEM of 10 independent experiments with 16 replicates each are shown. (FIG. 2D) S100A8/A9 protein produced by PMN after treatment with indicated hormones or LPS was measured by ELISA. PMN-MDSC were isolated from spleens of Lewis lung carcinoma tumor-bearing mice. Means±SEM and results of each independent experiment with three replicates are shown. (FIG. 2E) S100A8/A9 protein secreted in vitro from PMN and PMN treated with NE with or without ICI-118; […] as measured by ELISA. Means±SEM and results of independent experiment with three replicates are shown. (FIG. 2F) Flow cytometry staining of ADRB2 receptor (dark gray) on PMN isolated from mouse spleen. Isotype control, light gray. Representative histogram of three experiments is shown. (FIG. 2G) Fold increase in the number of KPr^p53A cells cultured with PMN alone, NE alone, PMN and NE together, and PMN and NE plus ICI-118; 553 relative to KPr^p53A cells cultured alone (Ctrl). Ten independent experiments with 16 replicates for each experiment were performed. Means±SEM in a representative experiment are shown. (FIG. 2H) Number of KPr^p53A cells cultured in the presence of PMN from S100a9KO mice alone or together with NE relative to KPr^p53A cells cultured alone (ctrl). Means±SEM are reported for 16 replicates. (FIG. 2I) Percentage of live PMN after overnight incubation with NE, S100A8/A9, or LPS. Each dot represents the average of three experimental replicates of one single experiment. Means±SEM are shown for each group. (FIG. 2J) Fold increase in number of LL2^CisA cells cultured with PMN alone or together with S100A8/A9 or NE relative to LL2^CisA cultured alone (Ctrl). Means±SEM of three independent experiments with 16 replicates each are shown. […] In all panels, P values were calculated using ANOVA test with correction for multiple comparisons.
FIG. 11A-FIG. 11G show the mechanism of dormant tumor cell reactivation. […] P values were calculated by ANOVA test with correction for multiple comparisons. […]

KPr^p53A cells = assay: In vitro co-culture of dormant tumor cells with PMN (count of GFP+ cells); type: cell-based, mouse; settings: for reactivation/proliferation of KPr^p53A cells cultured with PMN plus supplement: supplement added with PMN, LPS 0.5 to 2 μg/ml
Protocol: (§1) The KPr cell line (16) was maintained in RPMI 1640 medium (Corning) and 10% FBS (Gibco). Treatment of KPr cells with 250 nM 4-hydroxytamoxifen (4-OHT, Sigma-Aldrich) induced p53 expression. p53-induced cells (KPr^p53) were stained with CellTrace dye for 20 min at 37° C. according to the manufacturer's instructions (Life Technologies) and seeded at 8500 cells/cm^2 in culture in a T175 tissue culture-treated flask (Gibco). After 7 days, cells were detached and sorted based on the CellTrace dye intensity as proliferating (KPr^p53P, with lower CellTrace) and arrested cells (KPr^p53A, with higher-intensity CellTrace; see FIG. 1A for representative image). LL2 cells were seeded at 1000 cells/cm2 and treated for 3 days with 2.5 μM cisplatin (Selleckchem). After that, cells were stained with CellTrace and sorted as described above. OVCAR3 cell senescence was induced by treating 5×10^4 cells/cm2 with 0.5 μM cisplatin for 72 hours. After that time, cells were stained with CellTrace and sorted. A549 senescence was induced by 72-hour treatment with 4 μM cisplatin and cells were sorted after staining with CellTrace. Time points for sorting were chosen as the best to observe separation between arrested and proliferating cells. Cells were sorted on Astrios (Beckman Coulter) or Melody (Becton Dickinson) fluorescence-activated cell sorters.
(§2) Arrested tumor cells were plated at 100 cells/cm^2 in a 48-well tissue culture-treated plate (Costar) for coculture experiments. After 24 hours, PMN-MDSC or PMN were added at indicated ratios. Cocultures were maintained for 48 hours in RPMI 1640+10% FBS in the presence of mouse recombinant GM-CSF (10 ng/ml; Rocky Hill) to ensure neutrophil viability. All control conditions were in the presence of media with GM-CSF. All indicated supplements (NE, S100A8/A9, BGJ398, ICI 118-551, IL-2, MPO inhibitor, LPS, lipids, PMA, and thapsigargin 1 μM) were added to culture at the same time as PMN and maintained for 48 hours. After that, media were removed and replaced by fresh media without GM-CSF. After 1 week, GFP^+ cells in wells were counted via an inverted microscope. When lipid extracts were used, lipids were added to dormant cells in culture at 1 to 0.05 or 0.01 nmol as indicated in each experiment.

PMN [2] = assay: S100A8/A9 release by PMN measured by ELISA; type: cell-based, mouse
Protocol: PMN or PMN-MDSC were isolated from spleen of tumor-free mice or LLC tumor-bearing mice, respectively. A total of 5×10^5 LLC cells were injected into the right flank of mice, and spleens were harvested when tumors reached 200 mm^2. Spleens were mechanically dissociated. Red blood cells were lysed with ACK buffer cells. Splenocytes were stained with mouse biotin-conjugated Ly6G antibody (Miltenyi Biotec) followed by biotin microbeads. Ly6G+ cells were purified by magnetic separation with MACS column for magnetic cell isolation, according to the manufacturer's instructions (Miltenyi Biotec).
One hundred microliters of mouse peripheral blood was collected from facial vein. NE was measured by a mouse NE ELISA Kit (Novus Biologicals). S100A8/A9 was measured by Mouse S100A8/S100A9 Heterodimer DuoSet ELISA (R&D Systems). S100A8/A9 concentrations in human serum samples were determined by using a double-sandwich ELISA system as previously described (64), which is different from commercial ELISA kits. Human NE was measured using an ELISA kit (Abnova).

[3] = tested on: LL2^cisA and AT-3^DoxA cells; assay: In vitro co-culture of chemotherapy-arrested mouse tumor cells with PMN; type: cell-based; settings: LL2^cisA, AT-3^DoxA
Protocol: as §1, §2

[4] = tested on: A549^cisA and OVCAR3^cisA cells; assay: In vitro co-culture of chemotherapy-arrested human tumor cells with human PMN; type: cell-based; settings: A549^cisA, OVCAR3^cisA
Protocol: as §1, §2

[5] = tested on: LL2, A549 and OVCAR3 cells; assay: Cisplatin-induced tumor cell dormancy; type: cell-based, mouse; human; settings: LL2 2.5 μM, A549 4 μM, OVCAR3 0.5 μM, 72 hours
Protocol: as §1, with “sorters. […]” for “sorters.”

[6] = PMN treated with stress hormones or LPS

For Lipopolysaccharide [LPS], the PMN viability (PMN [1]; overnight incubation) was “markedly reduced it” and the “reactivation/proliferation of KPr^p53A cells cultured with PMN plus supplement” value (KPr^p53A cells) was “did not affect the ability of PMN to reactivate KPr^p53A cells”.

With `C/C=C(/C)C(=O)O[C@H]1C(C)=C2[C@H]([C@@H]1OC(=O)CCCCCCC)[C@@](C)(OC(C)=O)C[C@H](OC(=O)CCC)[C@@]1(O)[C@H]2OC(=O)[C@@]1(C)O` [thapsigargin] the “reactivation/proliferation of KPr^p53A cells cultured with PMN plus supplement” value (KPr^p53A cells) was “did not induce their ability to reactivate dormant KPr^p53A cells”.

In the case of TNF a, the “reactivation/proliferation of KPr^p53A cells cultured with PMN plus supplement” value (KPr^p53A cells) is reported as “did not induce their ability to reactivate dormant KPr^p53A cells”.

In the case of `CCCCCCCCCCCCCC(=O)O[C@@H]1[C@@H](C)[C@@]2(O)[C@@H](C=C(CO)C[C@]3(O)C(=O)C(C)=C[C@@H]23)[C@@H]2C(C)(C)[C@]12OC(C)=O` [PMA, phorbol 12-myristate 13-acetate], the “reactivation/proliferation of KPr^p53A cells cultured with PMN plus supplement” value (KPr^p53A cells) is reported as “did not induce their ability to reactivate dormant KPr^p53A cells”.

With `NC[C@H](O)c1ccc(O)c(O)c1` [NE, norepinephrine] the PMN viability (PMN [1]) was “did not affect PMN viability”, the “S100A8/A9 release by PMN” value (PMN [2]; [6]) was “caused rapid release of S100A8/A9 proteins” and the “proliferation of arrested mouse tumor cells cultured with mouse PMN plus supplement” value [3] was “reactivated dormant mouse and human tumor cells”. For the same molecule, the “reactivation of arrested human tumor cells cultured with human PMN plus supplement” value [4] was “reactivated dormant mouse and human tumor cells”, the “reactivation/proliferation of KPr^p53A cells, supplement alone” value (KPr^p53A cells; absence of PMN) was “did not affect the proliferation of KPr^p53A cells” and the “reactivation/proliferation of KPr^p53A cells cultured with PMN plus supplement” value (KPr^p53A cells) was “caused proliferation of tumor cells”.

In the case of `CNC[C@H](O)c1ccc(O)c(O)c1` [epinephrine], the “S100A8/A9 release by PMN” value (PMN [2]) is reported as “caused rapid release of S100A8/A9 proteins”.

In the case of `C[C@]12CCC(=O)C=C1CC[C@@H]1[C@@H]2[C@@H](O)C[C@@]2(C)[C@H]1CC[C@]2(O)C(=O)CO` [cortisol], the “S100A8/A9 release by PMN” value (PMN [2]; [6]) is reported as “caused rapid release of S100A8/A9 proteins”.

With IL-6: proinflammatory cytokine the “reactivation/proliferation of KPr^p53A cells cultured with PMN plus supplement” value (KPr^p53A cells) was “did not induce their ability to reactivate dormant KPr^p53A cells”.

With `NCCc1c[nH]c2ccc(O)cc12` [serotonin] the “S100A8/A9 release by PMN” value (PMN [2]; [6]) was “caused rapid release of S100A8/A9 proteins”.

For `N.N.[Cl][Pt][Cl]` [cisplatin], the “induction of proliferation arrest / senescence-like phenotype in tumor cells” value [5] was “caused a senescence-like phenotype in tumor cells in vitro” and the “induction of proliferation arrest / senescence-like phenotype in tumor cells” value ([5]; listed as Cisplatin) was “generated proliferation-arrested cells”.

For PE (18:0p/20:4) [Untreated PE], the “proliferation of KPr^p53A cells cultured with lipids” value (KPr^p53A cells; lipids added to dormant cells, no PMN) was “did not activate proliferation of KPr^p53A cells”.

B1: IL-10: proinflammatory cytokine as printed (protein, UniProt P22301 19-178, looked up)
Interleukin-10: SPGQGTQSENSCTHFPGNLPNMLRDLRDAFSRVKTFFQMKDQLDNLLLKESLLEDFKGYLGCQALSEMIQFYLEEVMPQAENQDPDIKAHVNSLGENLKTLRLRLRRCHRFLPCENKSKAVEQVKNAFNKLQEKGIYKAMSEFDIFINYIEAYMTMKIRN
With B1 the “reactivation/proliferation of KPr^p53A cells cultured with PMN plus supplement” value (KPr^p53A cells) was “did not induce their ability to reactivate dormant KPr^p53A cells”.

B2: human S100A8/A9: human recombinant S100A8/A9 (protein, UniProt P05109 1-93; P06702 1-114, looked up)
Protein S100-A8: MLTELEKALNSIIDVYHKYSLIKGNFHAVYRDDLKKLLETECPQYIRKKGADVWFKELDINTDGAVNFQEFLILVIKMGVAAHKKSHEESHKE
Protein S100-A9: MTCKMSQLERNIETIINTFHQYSVKLGHPDTLNQGEFKELVRKDLQNFLKKENKNEKVIEHIMEDLDTNADKQLSFEEFIMLMARLTWASHEKMHEGDEGPGHHHKPGLGEGTP
In the case of B2, the “reactivation of arrested human tumor cells cultured with human PMN plus supplement” value [4] is reported as “reactivation of A549^cisA and OVCAR3^cisA cells”.
